Data set [1] relates to E. coli. Nature of the data set: MIC against E. coli. The note with it: for MIC: Escherichia coli, read-out: MIC, E. coli; for MIC, E. coli: Table 6c.
Method: (§2) Minimum inhibitory concentrations (MICs) of the antimicrobials and their pro-drugs were assessed according to Jennifer M. Andrews, Journal of Antimicrobial Chemotherapy 48, suppl.
Data set [2] has as its system E. faecalis. The data set can be described thus: MIC against E. faecalis. It is filed as cell-based. The settings on record: Table 6c; for MIC: Enterococcus faecalis.
The subject of data set [3] is S. aureus. The data set can be described thus: MIC against S. aureus. The note with it: for MIC: Staphylococcus aureus, read-out: MIC, S. aureus; for MIC, S. aureus: Table 6c.
Method: as §2
The subject of data set [4] is methicillin-resistant Staphylococcus aureus (MRSA). The data set can be described thus: MIC against MRSA. In kind it is cell-based. The note with it: Table 6a.
Data set [5] is described as follows: In vitro penetration across isolated human skin in modified Franz cells. The note with it: pH 7.4; for In vitro Penetration Rate (apparent flux), Parent compounds: human, 10 %. As to the method:
Penetration rates of HPPs and their parent drugs through human skin were measured in vitro by modified Franz cells. A Franz cell had two chambers, the top sample chamber and the bottom receiving chamber. The human skin tissue (360-400 μm thick) that separated the top and the receiving chambers was isolated from the anterior or posterior thigh areas.
A test compound (2 mL, 10% in 0.2 M phosphate buffer, pH 7.4) was added to the sample chamber of a Franz cell. The receiving chamber contained 10 ml of 0.2 M phosphate buffer which was stirred at 600 rpm. The amount of the tested compound penetrating the skin was determined by high-performance liquid chromatography (HPLC) method.

A short description of data set [6]: Conversion of HPPs to parent drugs in human plasma (half life). In kind it is in vitro ADME. As to the method: HPPs of antimicrobials or antimicrobial-related compounds converted to the parent antimicrobials or antimicrobial-related compounds quickly in good yield in human plasma.
A HPP of antimicrobial or antimicrobial-related compound (10 mg) was dissolved in 0.1 ml of 0.2M pH 7.4 phosphate buffer. 1 ml of human plasma, preheated to 37° C., was added into the mixture. The mixture was kept in a water bath at 37° C., and at every 2 min intervals 0.2 ml of samples were withdrawn and added to 0.4 ml of methanol to precipitate the plasma protein.

The conditions of data set [7]: mouse, in vivo. As to the method:
In vivo rates of penetration of HPPs of beta-lactam antibiotics through skin and blood-brain barrier of intact hairless mice were studied. […] After 2 hours, the mice were killed. 5 ml of methanol was added to 1 g of homogenized blood, liver, kidney, muscle, or brain. The samples were centrifuged for 5 min and analyzed by HPLC (Table 2).

The test system of data set [8] is Aspergillus giganteus. Nature of the data set: Antifungal MIC in vitro. It is filed as cell-based.
Data set [9] concerns E. coli. Nature of the data set: Bacteriological cure of cow mastitis, topical treatment. In kind it is in vivo. The note with it: cows, day 22, topical 500 mg twice per day. The protocol:
(§1) 90 lactating dairy cows were recruited. Bacteriological cure was considered to have been achieved if the samples taken from the affected quarter on day 17 and day 22 were free of the bacterial species isolated in the pretreatment sample. Clinical cure was defined as the disappearance of clinical signs of disease which were observed on day 1 before treatment, in other words by the return to normal feed intake, rectal temperature<39.0° C., good general condition, absence of udder edema, normal milk appearance, and normal milk yield.

In data set [10] the test system is Staphylococcus aureus. Described as above. In kind it is in vivo. The note with it: cows, day 22, topical 500 mg twice per day. As to the method: as §1
Data set [11] relates to Enterobacteriaceae. The data set is described as above. It is filed as in vivo. The note with it: cows, day 22, topical 500 mg twice per day. The protocol:
as §1

The subject of data set [12] is Streptococcus uberis. The data set is described as above. It is filed as in vivo. The settings on record: cows, day 22, topical 500 mg twice per day. The protocol: as §1
The test system of data set [13] is Coagulase-negative staphylococci. The data set is described as above. It is filed as in vivo. The settings on record: cows, day 22, topical 500 mg twice per day. The protocol:
as §1

Data set [14] has as its system Trichophyton mentagrophytes. The data set can be described thus: Antifungal MIC in vitro. It is filed as cell-based.
Data set [15] deals with Fusarium oxisporum. Nature of the data set: Antifungal MIC in vitro. It is filed as cell-based.
Data set [16] deals with Aspergillus tereus. Nature of the data set: Antifungal MIC in vitro. In kind it is cell-based.
The subject of data set [17] is Aspergillus niger. Nature of the data set: Antifungal MIC in vitro. It is filed as cell-based.
Data set [18] deals with Aspergillus nidulans. The data set can be described thus: Antifungal MIC in vitro. In kind it is cell-based.
The test system of data set [19] is Microsporum canis. The data set can be described thus: Antifungal MIC in vitro. In kind it is cell-based.
Data set [20] has as its system Candida albicans. The data set can be described thus: Antifungal MIC in vitro. It is filed as cell-based.
Data set [21] can be described thus: Clinical cure of cow mastitis, topical treatment. It is filed as in vivo, lactating dairy cows. The settings on record: cows, 500 mg in 10 ml pH 7.4 phosphate buffer sprayed on skin of udder twice per day. As to the method: as §1
Data set [22] deals with Penicillium carylophilium. The data set can be described thus: Antifungal MIC in vitro. It is filed as cell-based.
Data set [23] has as its system Fusarium aquaductum. The data set can be described thus: Antifungal MIC in vitro. It is filed as cell-based.
Setting [24] is: Staphylococcus aureus, MRSA, read-out: MIC.

≈ marks a conversion by molar mass, not a printed value. Like-named read-outs stand apart in the source and are kept apart here. A value given as a limit tells only on which side of the number the result lay.

As a reminder, the MIC is the lowest concentration that inhibits growth of the organism.

With `Cc1noc(NS(=O)(=O)c2ccc(N)cc2)c1C` [Sulfisoxazole], the MIC in data set [1] is 16 µg/mL (≈ 59.9 µM); in [2], 55 µg/mL (≈ 206 µM); in data set [3], 64 µg/mL (≈ 239 µM).
With `COc1cccc(OC)c1C(=O)N[C@@H]1C(=O)N2[C@@H]1SC(C)(C)[C@@H]2C(=O)O` [Methicillin, reference compound], in data set [4] (setting [24]), the MIC came to 2160 µg/mL (≈ 5670 µM). For the same molecule, in data set [5], the “In vitro Penetration Rate (apparent flux), Parent compounds” value is given as under 0.001 mg/cm^2/h.
On to `O=C(O)c1cn(C2CC2)c2cc(N3CCNCC3)c(F)cc2c1=O` [Ciprofloxacin, 1-cyclopropyl-6-fluoro-4-oxo-7-piperazin-1-yl-quinoline-3-carboxylic acid], for which the figures for the MIC in data set [1], in [2] and in [3] were 10 µg/mL (≈ 30.2 µM), 2 µg/mL (≈ 6.04 µM) and 128 µg/mL (≈ 386 µM), respectively.
On to `CCCCOC(=O)c1cn(C2CC2)c2cc(N3CCNCC3)c(F)cc2c1=O.Cl` [ciprofloxacin-BE, 1-cyclopropyl-6-fluoro-4-oxo-7-piperazin-1-yl-quinoline-3-carboxylic acid butyl ester•HCl salt], for which the “MIC, E. coli” value in [1] stood at 0.2 µg/mL. The “MIC, E. faecalis” value in data set [2] stood at 0.05 µg/mL. The “MIC, S. aureus” value in data set [3] amounted to 5 µg/mL. In addition, in data set [5], the “In vitro Penetration Rate (apparent flux), HPPs of sulfonamides, sulfones, quinolones” value worked out at 0.29 ± 0.02 mg/cm^2/h.
penicillin V [reference compound] yielded an MIC in data set [4] of 3524 µg/mL.
The molecule `COc1cccc(OC)c1C(=O)NC1C(=O)N2C1SC(C)(C)C2C(=O)OCC1CCCN1.Cl` (stereo not shown) [methicillin-PME, 6-(2,6-dimethoxybenzamido)penicillinic acid 2-pyrrolidinemethyl ester hydrochloride] gave an MIC in [4] of 10 µg/mL.
On to `CO/N=C(\C(=O)N[C@@H]1C(=O)N2C(C(=O)O)=CCS[C@H]12)c1csc(N)n1` [Ceftizoxime, reference compound], for which, in data set [4] (setting [24]), the MIC was found to be 2790 µg/mL (≈ 7270 µM). In data set [5], the “In vitro Penetration Rate (apparent flux), Parent compounds” value is given as under 0.010 mg/cm^2/h.
`CCN(CC)CCOC(=O)C1N2C(=O)C(NC(=O)c3c(-c4ccccc4Cl)noc3C)C2SC1(C)C.Cl` (stereo not shown) [6-[3-(o-chlorophenyl)-5-methyl-4-isoxazolecarboxamido]penicillinic acid 2-diethylaminoethyl ester hydrochloride]: in data set [6] (human, plasma), the “Half life of HPPs in plasma” value was determined as 8 ± 1 min. For the same molecule, in [7], the “Amount of parent drug found in Blood” value turned out to be 25 ± 8 µg/g, the “Amount of parent drug found in Brain” value was 9 ± 5 µg/g, the “Amount of parent drug found in Kidney” value was 12 ± 7 µg/g and the “Amount of parent drug found in Liver” value amounted to 14 ± 6 µg/g. Also, in data set [7], the “Amount of parent drug found in Muscel” value was determined as 20 ± 7 µg/g.
Regarding `CCN(CC)CCOC(=O)C1N2C(=O)C(NC(=O)C3C(c4ccccc4)=NOC3C)C2SC1(C)C.Cl` (stereo not shown) [6-(5-methyl-3-phenyl-2-isoxazoline-4-carboxamido)penicillinic acid 2-diethylaminoethyl ester hydrochloride], the “Half life of HPPs in plasma” value in data set [6] (human, plasma) was determined as 12 ± 1 min. Also, in data set [7], the “Amount of parent drug found in Blood” value was 28 ± 5 µg/g, the “Amount of parent drug found in Brain” value was 8 ± 6 µg/g, the “Amount of parent drug found in Kidney” value turned out to be 16 ± 5 µg/g and the “Amount of parent drug found in Liver” value stood at 18 ± 7 µg/g. Moreover, the “Amount of parent drug found in Muscel” value in [7] amounted to 22 ± 5 µg/g.
For the molecule `CCn1cc(C(=O)O)c(=O)c2ccc(C)nc21` [nalidixic acid, 1-ethyl-7-methyl-4-oxo-[1,8]naphthyridine-3-carboxylic acid], the MIC came out at 6 µg/mL (≈ 25.8 µM) in data set [1], 64 µg/mL (≈ 276 µM) in [2] and 158 µg/mL (≈ 680 µM) in [3].
As for `CCN(CC)CCOC(=O)C1N2C(=O)C(NC(=O)c3c(OC)cccc3OC)C2SC1(C)C.Cl` (stereo not shown) [methicillin-DEE, 6-(2,6-dimethoxybenzamido)penicillinic acid 2-diethylaminoethyl ester hydrochloride], the “Half life of HPPs in plasma” value in data set [6] (human plasma, 37° C.) came out at 10 ± 1 min. Also, the “Minimum inhibitory concentration, Aspergillus giganteus” value in data set [8] was 9 µg/mL. In data set [9], the “Bacteriological cure rate, E. coli” value was found to be 80% and the “Bacteriological cure, No. cured, E. coli” value is listed as 8. In data set [10], the “Bacteriological cure rate, Staphylococcus aureus” value is 80% and the “Bacteriological cure, No. cured, Staphylococcus aureus” value is 4. In data set [11], the “Bacteriological cure rate, Enterobacteriaceae” value is reported as 75% and the “Bacteriological cure, No. cured, Enterobacteriaceae” value was determined as 6. Further, in data set [12], the “Bacteriological cure rate, Streptococcus uberis” value is 70% and the “Bacteriological cure, No. cured, Streptococcus uberis” value was found to be 7. For the same molecule, in data set [13], the “Bacteriological cure rate, Coagulase-negative staphylococci” value is recorded as 85.7% and the “Bacteriological cure, No. cured, Coagulase-negative staphylococci” value came to 6. For the same molecule, in data set [14], the “Minimum inhibitory concentration, Trichophyton mentagrophytes” value was found to be 22 µg/mL. In [15], the “Minimum inhibitory concentration, Fusarium oxisporum” value amounted to 8 µg/mL. For the same molecule, the “Minimum inhibitory concentration, Aspergillus tereus” value in data set [16] was 12 µg/mL. The “Minimum inhibitory concentration, Aspergillus niger” value in data set [17] is 9 µg/mL. Besides, in data set [18], the “Minimum inhibitory concentration, Aspergillus nidulans” value was 8 µg/mL. Besides, the “Minimum inhibitory concentration, Microsporum canis” value in data set [19] worked out at 8 µg/mL. For the same molecule, the “Minimum inhibitory concentration, Candida albicans” value in [20] amounted to 16 µg/mL. In data set [21], the “Clinical Cure Rate, Day 3” value is recorded as 43%; the “Clinical Cure Rate, Day 8” value was 90%; the “Clinical Cure Rate, Day 15” value is given as 97%; the “Clinical Cure Rate, Day 22” value was determined as 100%. The “Minimum inhibitory concentration, Penicillium carylophilium” value in [22] is 9 µg/mL. For the same molecule, the “Minimum inhibitory concentration, Fusarium aquaductum” value in data set [23] was found to be 10 µg/mL.
As to `CCN(CC)CCOC(=O)c1cn(CC)c2nc(C)ccc2c1=O.Cl` [nalidixic acid-DEE, 1-ethyl-7-methyl-4-oxo-[1,8]naphthyridine-3-carboxylic acid N,N-diethylaminoethyl ester•HCl salt], in data set [1], the “MIC, E. coli” value worked out at 0.2 µg/mL. Also, the “MIC, E. faecalis” value in data set [2] is 1 µg/mL. Also, the “MIC, S. aureus” value in [3] was 5 µg/mL. For the same molecule, the “In vitro Penetration Rate (apparent flux), HPPs of sulfonamides, sulfones, quinolones” value in data set [5] is 0.25 ± 0.04 mg/cm^2/h.
On to `CC1(C)SC2C(NC(=O)COc3ccccc3)C(=O)N2C1C(=O)OCCN1CCCCC1.Cl` (stereo not shown) [penicillin V-PEE, 6-phenoxyacetacetamidopenicillanic acid 1-piperidineethyl ester hydrochloride], for which the MIC in data set [4] stood at 1 µg/mL.

The values are drawn from patent US11485744B2, “High penetration prodrug compositions of antimicrobials and antimicrobial-related compounds” (priority 2009, dated 2022).
